Values belong to the compound of their own block, whether it stands above or below them.
Assays:
[1] = target: Histone-lysine N-methyltransferase 2C (Homo sapiens) (UniProt Q8NEZ4); experiment: Selectivity interaction (Methyltransferase screen (radiometric assays, panel of 8 PRMTs, 21 protein lysine methyltransferases, 3 DNA methyltransferases, and one RNA methyltransferase)) EUB0000271b MLL3
[2] = target: T1, Serine/threonine-protein kinase haspin (Homo sapiens) (UniProt Q8TF76); experiment: Selectivity interaction (Ambit KINOMEscan and KiNATiv profiling in Jurkat cells) EUB0000090b GSG2; type: cell-based; details: at 1 µM
T1 sequence (whole entry): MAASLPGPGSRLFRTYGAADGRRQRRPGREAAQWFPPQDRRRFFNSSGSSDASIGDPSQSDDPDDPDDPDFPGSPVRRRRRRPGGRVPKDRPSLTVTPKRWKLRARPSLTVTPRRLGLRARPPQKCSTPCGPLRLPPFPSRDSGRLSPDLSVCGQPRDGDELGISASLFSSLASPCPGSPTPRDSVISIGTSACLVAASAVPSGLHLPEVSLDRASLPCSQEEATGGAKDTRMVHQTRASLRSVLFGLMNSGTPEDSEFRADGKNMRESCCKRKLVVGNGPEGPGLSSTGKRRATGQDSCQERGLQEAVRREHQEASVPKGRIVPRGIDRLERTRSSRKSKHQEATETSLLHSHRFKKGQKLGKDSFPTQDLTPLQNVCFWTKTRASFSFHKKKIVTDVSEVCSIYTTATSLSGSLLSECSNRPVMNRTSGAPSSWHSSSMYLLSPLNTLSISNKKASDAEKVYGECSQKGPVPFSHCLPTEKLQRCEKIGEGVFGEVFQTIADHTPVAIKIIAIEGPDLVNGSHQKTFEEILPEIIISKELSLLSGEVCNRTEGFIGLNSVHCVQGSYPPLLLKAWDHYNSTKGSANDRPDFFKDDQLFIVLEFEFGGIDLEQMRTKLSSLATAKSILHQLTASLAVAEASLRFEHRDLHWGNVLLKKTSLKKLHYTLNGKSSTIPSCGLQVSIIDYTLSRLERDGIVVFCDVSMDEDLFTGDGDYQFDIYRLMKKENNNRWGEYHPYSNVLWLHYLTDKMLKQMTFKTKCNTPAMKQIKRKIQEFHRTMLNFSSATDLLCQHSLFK

[3] = target: T2, cAMP-dependent protein kinase catalytic subunit PRKX (Homo sapiens) (UniProt P51817); experiment: Selectivity interaction (KinomeScan (DiscoverX)) EUB0000045b PRKX
T2 sequence (whole entry): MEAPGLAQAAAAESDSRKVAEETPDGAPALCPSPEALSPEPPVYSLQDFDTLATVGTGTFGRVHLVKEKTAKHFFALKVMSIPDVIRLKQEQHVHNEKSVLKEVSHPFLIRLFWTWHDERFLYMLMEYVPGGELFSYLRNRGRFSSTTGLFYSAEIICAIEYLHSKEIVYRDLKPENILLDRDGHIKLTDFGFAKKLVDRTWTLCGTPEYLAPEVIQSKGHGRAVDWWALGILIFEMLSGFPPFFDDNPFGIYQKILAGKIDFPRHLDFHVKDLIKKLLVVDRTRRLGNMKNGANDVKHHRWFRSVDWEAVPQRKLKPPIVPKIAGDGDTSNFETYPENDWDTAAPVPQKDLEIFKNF

[4] = target: Mitogen-activated protein kinase kinase kinase 21 (Homo sapiens) (UniProt Q5TCX8); experiment: Selectivity interaction (ActivX KiNativ screen (kinase selectivity in THP-1 cell lysates)) EUB0000639a MAP3K21; type: subcellular; details: lysate
Sequence of Mitogen-activated protein kinase kinase kinase 21 (Homo sapiens) (Q5TCX8 whole entry): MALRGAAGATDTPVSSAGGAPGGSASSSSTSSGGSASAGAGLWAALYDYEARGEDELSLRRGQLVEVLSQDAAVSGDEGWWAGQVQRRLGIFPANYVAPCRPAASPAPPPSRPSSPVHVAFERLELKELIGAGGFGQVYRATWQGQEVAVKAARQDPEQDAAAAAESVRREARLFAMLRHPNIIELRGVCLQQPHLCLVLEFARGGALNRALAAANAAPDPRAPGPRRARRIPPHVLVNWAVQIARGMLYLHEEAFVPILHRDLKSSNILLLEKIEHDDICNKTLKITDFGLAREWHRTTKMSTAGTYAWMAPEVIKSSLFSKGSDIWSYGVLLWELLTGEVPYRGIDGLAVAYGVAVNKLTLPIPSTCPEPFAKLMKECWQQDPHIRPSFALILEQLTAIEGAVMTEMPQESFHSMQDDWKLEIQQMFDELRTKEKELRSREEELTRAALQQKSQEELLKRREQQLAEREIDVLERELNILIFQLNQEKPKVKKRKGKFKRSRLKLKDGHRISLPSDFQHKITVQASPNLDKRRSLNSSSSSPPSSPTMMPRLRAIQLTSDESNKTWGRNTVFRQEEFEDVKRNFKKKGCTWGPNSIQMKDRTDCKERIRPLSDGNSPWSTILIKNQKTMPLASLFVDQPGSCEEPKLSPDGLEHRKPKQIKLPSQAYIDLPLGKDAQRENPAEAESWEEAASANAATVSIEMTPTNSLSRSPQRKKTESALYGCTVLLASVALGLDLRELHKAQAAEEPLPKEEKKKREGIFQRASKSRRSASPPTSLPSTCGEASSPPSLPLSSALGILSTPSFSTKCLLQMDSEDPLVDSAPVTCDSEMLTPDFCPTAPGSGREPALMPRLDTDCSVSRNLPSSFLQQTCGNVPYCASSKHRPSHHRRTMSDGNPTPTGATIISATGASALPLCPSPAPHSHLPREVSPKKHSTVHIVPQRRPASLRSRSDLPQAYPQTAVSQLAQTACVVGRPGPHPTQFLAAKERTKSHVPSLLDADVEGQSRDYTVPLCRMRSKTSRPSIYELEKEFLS

[5] = target: T3, Serine/threonine-protein kinase 3 (Homo sapiens) (UniProt Q13188); experiment: Selectivity interaction (ActivX KiNativ screen (kinase selectivity in THP-1 cell lysates)) EUB0000639a STK3; type: subcellular; details: lysate, at 0.04 µM
T3 sequence (whole entry): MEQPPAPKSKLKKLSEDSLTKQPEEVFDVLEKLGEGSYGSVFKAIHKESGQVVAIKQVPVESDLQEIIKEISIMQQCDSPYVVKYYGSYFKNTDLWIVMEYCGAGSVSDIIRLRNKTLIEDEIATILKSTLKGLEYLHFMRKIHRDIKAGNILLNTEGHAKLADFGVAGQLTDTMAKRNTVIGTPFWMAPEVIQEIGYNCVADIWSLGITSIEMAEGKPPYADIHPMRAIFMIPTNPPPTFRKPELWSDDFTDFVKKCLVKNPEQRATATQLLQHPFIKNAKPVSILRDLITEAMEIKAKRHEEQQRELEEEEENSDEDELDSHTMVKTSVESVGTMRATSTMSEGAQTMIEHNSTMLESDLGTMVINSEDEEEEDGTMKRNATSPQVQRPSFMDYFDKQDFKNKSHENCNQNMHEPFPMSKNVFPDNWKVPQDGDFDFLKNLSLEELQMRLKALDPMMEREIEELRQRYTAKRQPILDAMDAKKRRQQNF

[6] = target: T4, Dual specificity mitogen-activated protein kinase kinase 3 (Homo sapiens) (UniProt P46734); experiment: Selectivity interaction (ActivX KiNativ screen (kinase selectivity in THP-1 cell lysates)) EUB0000639a MAP2K3; type: subcellular; details: lysate, at 5 µM
T4 sequence (whole entry): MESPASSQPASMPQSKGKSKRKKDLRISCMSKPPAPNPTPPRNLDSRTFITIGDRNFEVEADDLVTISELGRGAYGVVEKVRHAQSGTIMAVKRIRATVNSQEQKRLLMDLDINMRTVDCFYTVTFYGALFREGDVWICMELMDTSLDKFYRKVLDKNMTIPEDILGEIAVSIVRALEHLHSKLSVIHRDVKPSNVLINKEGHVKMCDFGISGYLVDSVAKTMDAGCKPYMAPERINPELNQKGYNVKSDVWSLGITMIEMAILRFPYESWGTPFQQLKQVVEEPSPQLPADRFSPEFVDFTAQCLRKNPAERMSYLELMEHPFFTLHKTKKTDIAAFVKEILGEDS

[7] = target: Serine/threonine-protein kinase SIK1 (Homo sapiens) (UniProt P57059); experiment: Selectivity interaction (KinomeScan (DiscoverX)) EUB0000666a SIK1; details: at 10 µM
Sequence of Serine/threonine-protein kinase SIK1 (Homo sapiens) (P57059 whole entry): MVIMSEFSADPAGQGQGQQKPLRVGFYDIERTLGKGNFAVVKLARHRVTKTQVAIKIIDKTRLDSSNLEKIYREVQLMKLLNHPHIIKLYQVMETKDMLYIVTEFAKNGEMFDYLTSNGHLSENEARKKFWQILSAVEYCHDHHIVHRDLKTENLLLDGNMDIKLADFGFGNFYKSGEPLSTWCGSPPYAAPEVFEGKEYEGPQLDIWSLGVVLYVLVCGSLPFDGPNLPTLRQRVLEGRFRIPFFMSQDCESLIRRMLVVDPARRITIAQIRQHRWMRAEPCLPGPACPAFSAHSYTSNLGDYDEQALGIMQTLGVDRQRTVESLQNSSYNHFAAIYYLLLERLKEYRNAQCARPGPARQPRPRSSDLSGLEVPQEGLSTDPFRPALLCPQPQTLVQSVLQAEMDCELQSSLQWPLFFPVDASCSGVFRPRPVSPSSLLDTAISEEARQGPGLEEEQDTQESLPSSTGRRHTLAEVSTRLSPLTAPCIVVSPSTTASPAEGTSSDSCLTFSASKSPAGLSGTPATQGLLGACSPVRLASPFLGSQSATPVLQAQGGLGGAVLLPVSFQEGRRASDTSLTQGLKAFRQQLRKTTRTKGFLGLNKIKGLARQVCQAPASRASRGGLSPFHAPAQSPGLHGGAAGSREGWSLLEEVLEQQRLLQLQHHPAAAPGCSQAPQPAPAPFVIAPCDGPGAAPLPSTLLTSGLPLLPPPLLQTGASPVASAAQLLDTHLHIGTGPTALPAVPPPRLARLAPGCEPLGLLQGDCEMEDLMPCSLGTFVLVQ

[8] = target: Calcium/calmodulin-dependent protein kinase type 1 (Homo sapiens) (UniProt Q14012); experiment: Selectivity interaction (KinomeScan (DiscoverX)) EUB0000666a CAMK1; details: at 10 µM
Sequence of Calcium/calmodulin-dependent protein kinase type 1 (Homo sapiens) (Q14012 whole entry, looked up): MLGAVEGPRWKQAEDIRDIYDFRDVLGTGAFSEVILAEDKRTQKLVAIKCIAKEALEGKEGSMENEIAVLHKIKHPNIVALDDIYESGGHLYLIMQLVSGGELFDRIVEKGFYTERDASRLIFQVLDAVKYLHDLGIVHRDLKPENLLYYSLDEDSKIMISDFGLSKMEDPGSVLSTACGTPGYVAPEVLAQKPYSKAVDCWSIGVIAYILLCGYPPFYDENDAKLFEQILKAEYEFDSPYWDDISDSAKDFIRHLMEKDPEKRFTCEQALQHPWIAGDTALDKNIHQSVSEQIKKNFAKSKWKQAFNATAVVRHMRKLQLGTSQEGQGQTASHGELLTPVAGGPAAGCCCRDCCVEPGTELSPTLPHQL

Compound: Cc1cc(C)cc([C@@H]2c3cc(C)ccc3NC(=O)CN2C(=O)c2ccc(Br)s2)c1
% of activity ([1]; at 1 µM): 104%
% of activity ([1]; at 10 µM): 97%

Compound: CN(C)C/C=C/C(=O)Nc1ccc(C(=O)N2CCCC(Nc3ncc(Cl)c(-c4c[nH]c5ccccc45)n3)C2)cc1 (centres undefined)
% of control [2]: 73%

Compound: C=CC(=O)Nc1cc(-n2c(=O)ccc3cnc4ccc(-c5ccc(NS(C)(=O)=O)cc5)cc4c32)ccc1C
% of control ([3]; at 1 µM): 77%
% of control ([3]; at 10 µM): 74%

% of inhibition ([4]; at 0.01 µM): 7.8%
% of inhibition ([4]; at 0.04 µM): 2%
% of inhibition ([4]; at 0.2 µM): 4.6%
% of inhibition ([4]; at 1 µM): 14%
% of inhibition ([4]; at 5 µM): 17%
% of inhibition [5]: 2.2%
% of inhibition [6]: -185%
Compound: CC[C@@H]1[C@H](F)C(=O)N[C@@H]1COc1nccc2cc(C(N)=O)c(OC)cc12 [ZIMLOVISERTIB]

Compound: O=C(NOC[C@H](O)CO)c1ccc(F)c(F)c1Nc1ccc(I)cc1F
% of control [7]: 100%
% of control [8]: 98%

From ChEMBL document CHEMBL5465560, “Selectivity Literature for EUbOPEN Chemogenomic Library” (2024)
